Results reported in paper PMC8472965, “BmK86-P1, a New Degradation Peptide with Desirable Thermostability and Kv1.2 Channel-Specific Activity from Traditional Chinese Scorpion Medicinal Material” (Toxins, 2021).
Positions of bridges follow the written chain, without caps; N, C: chain ends. Residues, ends and D or L forms follow the SMILES beside them.

Legend:
hKv1.2-V381Y = biological target: T1, hKv1.2-V381Y (Homo sapiens, UniProt P16389, V381Y); experiment: Whole-cell patch clamp, hKv1.2 channel mutant V381Y; assay type: cell-based; details: 100 nM peptide, HEK293T, mean ± S.E., n ≥ 3, SEM
T1 construct: expressed in transfected cells; host or cells: HEK293T
T1 sequence (P16389 whole entry V381Y): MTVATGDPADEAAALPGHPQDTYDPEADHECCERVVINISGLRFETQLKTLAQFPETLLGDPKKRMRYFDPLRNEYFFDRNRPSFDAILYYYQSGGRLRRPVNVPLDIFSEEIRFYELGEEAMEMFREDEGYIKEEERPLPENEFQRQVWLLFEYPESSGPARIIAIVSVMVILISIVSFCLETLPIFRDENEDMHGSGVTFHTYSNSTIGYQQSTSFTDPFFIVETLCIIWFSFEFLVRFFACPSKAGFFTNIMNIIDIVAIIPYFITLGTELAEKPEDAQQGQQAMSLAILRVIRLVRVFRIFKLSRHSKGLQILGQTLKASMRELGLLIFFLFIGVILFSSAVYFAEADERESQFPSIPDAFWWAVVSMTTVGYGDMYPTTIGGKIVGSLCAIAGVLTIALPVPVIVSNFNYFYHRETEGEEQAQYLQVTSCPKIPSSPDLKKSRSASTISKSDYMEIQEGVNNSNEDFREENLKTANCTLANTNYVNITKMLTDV
Description: (§1) To determine the functional sites of the hKv1.2 channel responsible for the selectivity of BmK86-P1, six hKv1.2 mutants were obtained based on sequence differences between the pore regions of the hKv1.2 and hKv1.1 channels (Figure 4A). Then, the activities of 100 nM BmK86-P1 on these six mutant channels were tested. […] The other three mutant channels (hKv1.2-D352E, hKv1.2-R354A and hKv1.2-P359S) still kept similar sensitivities toward BmK86-P1 compared with the wild-type hKv1.2 channel (Figure 4H,I,K,N).
(§2) All potassium channel expression vectors were given by others or constructed by ourselves. HEK293T cells were cultured in Dulbecco’s modified Eagle medium (Gibco, Pittsburgh, PA, USA) with 10% fetal bovine serum and penicillin/streptomycin (100 units/mL) in a 5% CO2 incubator at 37 °C. Potassium channel expression vectors and pEGFP-N1 were co-transfected into HEK293T cells using TurboFect in vitro Transfection Reagent (Thermo Scientific, Waltham, MA, USA) according to the manufacturer’s instructions. The potassium currents were recorded after transfection for 1 to 3 days.
(§3) The channel currents were measured and recorded by whole-cell patch clamp technology according to previously published references. […] The channel currents were recorded at room temperature (~25 °C) using an EPC 10 patch clamp amplifier. […]

[1] = biological target: T2, hKv1.2-M1 chimeric channel (Homo sapiens, UniProt P16389, D352E/P359S/Q357H/R354A/T383V/V381Y); experiment: Whole-cell patch clamp, chimeric channel hKv1.2-M1 (S5-S6 linker of hKv1.2 replaced by that of hKv1.1); assay type: cell-based; details: 100 nM peptide, HEK293T, mean ± S.E., n ≥ 3, SEM
T2 construct: expressed in transfected cells; host or cells: HEK293T
T2 sequence (P16389 whole entry D352E/R354A/Q357H/P359S/V381Y/T383V): as the sequence (P16389 whole entry V381Y) above, with D352E, R354A, Q357H, P359S, T383V counted along it
Description: The binding interface of potassium channels for scorpion toxins is the pore region, which includes the turret and filter regions. We first investigated whether BmK86-P1 peptide binds to the pore region of the hKv1.2 channel.
as §2
The channel currents were measured and recorded by whole-cell patch clamp technology according to previously published references. The internal patch pipette solution and the bath solution were prepared as previously described. All the test peptides were dissolved into bath solution supplemented with 0.01% BSA. An MPS-2 multichannel microperfusion system (INBIO Inc., Wuhan, China) was applied to change the external recording bath solution. […] The channel currents were recorded at room temperature (~25 °C) using an EPC 10 patch clamp amplifier. […]

rKv4.2 channel = biological target: T3, rKv4.2 channel (Rattus norvegicus, UniProt Q63881); experiment: Whole-cell patch clamp, rKv4.2 channel overexpressed in HEK293T cells; assay type: cell-based; details: 1 μM peptide, mean ± S.E., n ≥ 3, SEM
T3 construct: expressed in transfected cells; host or cells: HEK293T
T3 sequence (Q63881 1-630): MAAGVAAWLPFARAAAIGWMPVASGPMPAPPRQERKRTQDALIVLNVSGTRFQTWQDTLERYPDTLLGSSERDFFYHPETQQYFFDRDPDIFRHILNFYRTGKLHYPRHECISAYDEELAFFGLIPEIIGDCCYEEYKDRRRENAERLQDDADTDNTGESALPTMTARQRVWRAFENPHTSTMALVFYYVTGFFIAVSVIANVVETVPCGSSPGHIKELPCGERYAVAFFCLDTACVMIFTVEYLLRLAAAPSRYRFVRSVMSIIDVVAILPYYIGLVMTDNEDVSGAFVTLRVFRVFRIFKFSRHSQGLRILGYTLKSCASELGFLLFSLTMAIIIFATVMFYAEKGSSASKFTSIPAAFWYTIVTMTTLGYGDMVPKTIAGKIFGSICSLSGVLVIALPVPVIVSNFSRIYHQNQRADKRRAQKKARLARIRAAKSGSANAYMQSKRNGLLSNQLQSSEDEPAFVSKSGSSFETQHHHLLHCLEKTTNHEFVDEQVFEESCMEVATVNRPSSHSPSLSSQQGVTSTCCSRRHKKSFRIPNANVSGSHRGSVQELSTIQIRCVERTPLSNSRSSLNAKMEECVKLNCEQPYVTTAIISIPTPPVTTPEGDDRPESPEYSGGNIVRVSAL
Description: (§4) To investigate the electrophysiological activities of BmK86-P1, the whole-cell patch clamp technique was applied to test the effects of BmK86-P1 on multiple potassium channels. The hKv1.1, hKv1.2, hKv1.3, hKv1.6, hKv3.2, mKv4.1, rKv4.2, rKv4.3 and hERG channels were overexpressed in HEK293T cells, then the inhibitory effects of BmK86-P1 at 1 μM on these potassium channels were measured. […] To further investigate the affinity of BmK86-P1 inhibiting the hKv1.2 channel, a dose-dependent study was performed by examining the inhibitory effects of different concentrations of BmK86-P1.
(§5) All potassium channel expression vectors were given by others or constructed by ourselves. HEK293T cells were cultured in Dulbecco’s modified Eagle medium (Gibco, Pittsburgh, PA, USA) with 10% fetal bovine serum and penicillin/streptomycin (100 units/mL) in a 5% CO2 incubator at 37 °C. […] The potassium currents were recorded after transfection for 1 to 3 days.
as §3
(§6) The ClampFit (Molecular Devices, Sunnyvale, CA, USA) and SigmaPlot software ([…], Chicago, IL, USA) were used to analyze the recorded data. […]

hKv1.2-P359S = biological target: T4, hKv1.2-P359S (Homo sapiens, UniProt P16389, P359S); experiment: Whole-cell patch clamp, hKv1.2 channel mutant P359S; assay type: cell-based; details: 100 nM peptide, HEK293T, mean ± S.E., n ≥ 3, SEM
T4 construct: expressed in transfected cells; host or cells: HEK293T
T4 sequence (P16389 whole entry P359S): as the sequence (P16389 whole entry V381Y) above, with P359S, Y381V counted along it
Description: as §1, §2, §3

rKv4.3 channel = experiment: Whole-cell patch clamp, rKv4.3 channel overexpressed in HEK293T cells; assay type: cell-based, rat; details: 1 μM peptide, mean ± S.E., n ≥ 3, SEM
Description: as §4, §5, §3, §6

mKv4.1 channel = biological target: T5, mKv4.1 channel (Mus musculus, UniProt Q03719); experiment: Whole-cell patch clamp, mKv4.1 channel overexpressed in HEK293T cells; assay type: cell-based; details: 1 μM peptide, mean ± S.E., n ≥ 3, SEM
T5 construct: expressed in transfected cells; host or cells: HEK293T
T5 sequence (Q03719 1-651): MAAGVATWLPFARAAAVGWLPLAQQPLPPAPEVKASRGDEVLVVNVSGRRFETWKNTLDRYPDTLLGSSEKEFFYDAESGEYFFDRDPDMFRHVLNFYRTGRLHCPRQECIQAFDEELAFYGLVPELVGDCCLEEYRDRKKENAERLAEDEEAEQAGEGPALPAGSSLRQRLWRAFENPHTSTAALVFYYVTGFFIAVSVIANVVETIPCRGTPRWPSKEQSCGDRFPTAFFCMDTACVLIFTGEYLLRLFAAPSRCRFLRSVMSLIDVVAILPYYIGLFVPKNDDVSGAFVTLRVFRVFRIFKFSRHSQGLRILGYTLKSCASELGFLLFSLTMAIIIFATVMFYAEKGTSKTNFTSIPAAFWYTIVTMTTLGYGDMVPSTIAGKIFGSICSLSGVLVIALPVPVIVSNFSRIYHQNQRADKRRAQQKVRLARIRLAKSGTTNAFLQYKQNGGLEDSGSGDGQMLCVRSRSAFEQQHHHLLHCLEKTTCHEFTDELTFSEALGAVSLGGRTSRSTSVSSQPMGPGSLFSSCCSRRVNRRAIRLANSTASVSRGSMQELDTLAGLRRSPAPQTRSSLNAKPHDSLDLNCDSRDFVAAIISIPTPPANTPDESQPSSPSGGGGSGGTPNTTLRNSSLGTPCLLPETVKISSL
Description: as §4, §5, §3, §6

Question: What does the source list for `CC[C@H](C)[C@@H]1NC(=O)[C@@H]2CSSC[C@H](NC(=O)[C@H](C)N)C(=O)N[C@@H](CO)C(=O)N[C@@H](CCCCN)C(=O)N3CCC[C@H]3C(=O)N[C@H]3CSSC[C@H](NC(=O)[C@H](CCCNC(=N)N)NC(=O)CNC(=O)[C@H](CC(N)=O)NC1=O)C(=O)N[C@@H](Cc1c[nH]cn1)C(=O)N[C@H](C(=O)N[C@@H](Cc1ccc(O)cc1)C(=O)N[C@@H](Cc1ccc(O)cc1)C(=O)O)CSSC[C@H](NC(=O)[C@H](Cc1ccc(O)cc1)NC(=O)[C@H](CCCCN)NC(=O)[C@H](CCCNC(=N)N)NC3=O)C(=O)N[C@@H]([C@@H](C)CC)C(=O)N[C@@H](CC(=O)O)C(=O)N[C@@H](CCCCN)C(=O)NCC(=O)N[C@@H](C)C(=O)N[C@@H](CCCNC(=N)N)C(=O)N[C@@H](CC(N)=O)C(=O)NCC(=O)N[C@@H](CCCCN)C(=O)N2` [BmK86-P1] (H-ACSKPCRKYCIDKGARNGKCINGRCHCYY-OH; disulfide 2-20, 6-25, 10-27 (inferred); N-terminus and C-terminus assumed)?
Answer: inhibition of hKv1.2-V381Y channel currents (hKv1.2-V381Y): 1.6 ± 0.1%; inhibition of hKv1.2-M1 chimeric channel currents [1]: 1.0 ± 0.2%; inhibition of rKv4.2 channel currents (rKv4.2 channel): 11.0 ± 1.8%; inhibition of hKv1.2-P359S channel currents (hKv1.2-P359S): 72.4 ± 5.5%; inhibition of Kv4.3 channel currents (rKv4.3 channel): 4.9 ± 0.3%; inhibition of Kv4.1 channel currents (mKv4.1 channel): 3.4 ± 1.1%
